Laboratory results taken from patent EP4714938A1, “HDAC1/2 SELECTIVE INHIBITOR AND USE THEREOF” (Wigen Biomedicine Technology (Shanghai) Co., Ltd., priority 2023, dated 2024).

Molecular target: T1, HDAC6 (Homo sapiens, UniProt Q9UBN7)
T1 sequence (Q9UBN7 1-1215): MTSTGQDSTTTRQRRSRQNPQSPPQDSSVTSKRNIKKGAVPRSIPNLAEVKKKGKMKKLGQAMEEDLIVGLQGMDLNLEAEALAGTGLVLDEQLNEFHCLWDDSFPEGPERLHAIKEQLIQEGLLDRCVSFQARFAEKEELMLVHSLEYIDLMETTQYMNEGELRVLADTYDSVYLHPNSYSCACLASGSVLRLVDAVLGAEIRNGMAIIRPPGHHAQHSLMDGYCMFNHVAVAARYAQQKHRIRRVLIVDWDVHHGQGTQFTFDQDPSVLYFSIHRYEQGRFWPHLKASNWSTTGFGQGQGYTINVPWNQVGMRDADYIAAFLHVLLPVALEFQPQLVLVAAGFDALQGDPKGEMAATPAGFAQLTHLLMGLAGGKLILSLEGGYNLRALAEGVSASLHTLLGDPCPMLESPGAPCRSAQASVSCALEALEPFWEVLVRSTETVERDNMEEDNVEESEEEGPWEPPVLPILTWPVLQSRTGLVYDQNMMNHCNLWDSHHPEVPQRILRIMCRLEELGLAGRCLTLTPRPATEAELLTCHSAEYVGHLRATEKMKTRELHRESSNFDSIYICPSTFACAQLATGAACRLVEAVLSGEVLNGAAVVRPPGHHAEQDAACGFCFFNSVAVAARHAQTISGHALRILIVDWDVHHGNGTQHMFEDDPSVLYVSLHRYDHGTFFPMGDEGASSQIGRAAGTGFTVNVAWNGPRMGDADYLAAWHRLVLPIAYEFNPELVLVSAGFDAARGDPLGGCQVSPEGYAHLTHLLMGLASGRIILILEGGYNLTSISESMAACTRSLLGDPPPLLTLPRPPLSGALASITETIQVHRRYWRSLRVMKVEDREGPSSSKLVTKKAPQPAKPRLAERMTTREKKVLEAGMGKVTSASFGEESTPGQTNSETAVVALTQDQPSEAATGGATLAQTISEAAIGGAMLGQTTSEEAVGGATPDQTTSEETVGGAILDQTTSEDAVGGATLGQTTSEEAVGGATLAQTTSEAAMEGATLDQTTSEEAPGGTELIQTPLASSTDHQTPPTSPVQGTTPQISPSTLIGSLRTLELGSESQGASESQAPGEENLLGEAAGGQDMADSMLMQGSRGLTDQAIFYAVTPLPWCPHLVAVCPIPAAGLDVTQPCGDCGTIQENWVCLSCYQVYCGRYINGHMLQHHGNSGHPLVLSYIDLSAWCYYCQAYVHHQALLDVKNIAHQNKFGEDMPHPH
Test: HDAC enzyme inhibitory activity, FRET method
Type: biochemical
Settings: Table 6; read-out: IC50 HDAC subtype 6
Protocol: The compounds of the present disclosure were assayed for enzyme inhibitory activity against various subtypes of HDAC enzymes by the FRET method. The various subtypes of HDAC enzymes were obtained either through purification or direct purchase of assay kits.
The specific method was as follows: The enzyme was added to a 384-well plate, and a reaction buffer was added to the control well. Serially diluted DMSO sample solutions were added to the reaction wells, and the plate was incubated at room temperature for 15 min. Then a chromogenic agent was added to stop the reaction, and fluorescence was generated. The fluorescence intensity was measured using an EnVision multi-label microplate reader (excitation: 355 nm, emission: 460 nm). The endpoint value was read after the color development reached stability. The inhibition IC50 of the compounds was calculated using GraphPad Prism4 software relative to DMSO.

In the case of `CS(C)(=O)=Nc1ccc(C(=O)Nc2cc(-c3ccc(F)cc3)ccc2N)cc1` [Compound 1, N-(4-Amino-4'-fluoro-[1,1'-biphenyl]-3-yl)-4-((dimethyl(oxo)-1^λ-6-sulfaneylidene)amino)benzamide], the IC50 is reported as greater than 30 µM.
